Assay results as given in patent US20110288045A1, “WET GRANULATION OF TENOFOVIR, EMTRICITABINE AND EFAVIRENZ” (ULTIMORPHIX TECHNOLOGIES B.V., priority 2008, published 2011).
Entries after “also recorded” stand apart in the source; their conditions may differ. Counter-ions that a name gives are not always drawn. Like-named read-outs stand apart in the source and are kept apart here.

Experiments:
[1] = wet granulation of the three drugs (Efavirenz, Tenofovir DF, Emtricitabine) together; US2007099902A1, EP1890681; cited from earlier work
[2] = Stability testing at 33 weeks of wet granulated Truvada and Atripla combination formulations, by HPLC; format: physicochemical
Method: Stability Testing at 33 Weeks
The stability of the Truvada and Atripla combination formulations after wet granulation was checked by HPLC after 33 weeks storage under 75% Relative Humidity (RH) and 40° C.
Two types of formulations were prepared for each combination, one containing the Tenofovir Disoproxil Fumarate and the other one containing the Tenofovir Disoproxil Hemifumarate co-crystal. In both combinations, water content of 30 and 40% was prepared.

[3] = HPLC assay for degradation products after wet granulation; format: physicochemical; settings: for Impurity peaks of Tenofovir disoproxil at 26.57 and 36.0 min (HPLC): wet granulation with Emtricitabine (Table 1)
Method: Analytical Methods: HPLC Assay for Degradation Product
Emtricitabine/Tenofovir disoproxil (Fumarate or Hemifumarate) granules are assayed by HPLC for Emtricitabine and Tenofovir disoproxil (Fumarate or Hemifumarate) using external references as described in US2007/0077295. The presence of degradation products are determined by area normalization. The identities of Emtricitabine and Tenofovir disoproxil (Fumarate or Hemifumarate) are confirmed by comparison of their retention times with those of the reference standards.
Approximately 6520 mg of Emtricitabine/Tenofovir disoproxil (Fumarate or Hemifumarate) granules was weighted into a 1 L volumetric flask. Added was 400 mL 25 mM phosphate buffer, pH 3 to the volumetric flask. Mixing was performed by stirring vigorously for about 75 minutes. 50:50 acetonitrile: methanol was added to the flask to approximately 2 cm below the 1 L mark. The solution was equilibrated to ambient temperature by mixing for 1 hour. The volume was diluted to 1 L with 50:50 acetonitrile: methanol and mixed well by stirring with a magnetic stirring bar. Using a 0.45 μm syringe filter with a syringe, approximately 10 mL for the next dilution was filtered. The first 2 mL of the filtrate was discarded. A class A pipette was used to transfer 5.0 mL of the filtrate into a 50 mL volumetric flask and dilute the to volume with sample solvent (40:30:30). […]
A composition comprising the ingredients and ratios as listed in table 1 are subjected to a standard wet granulation process with respectively 30% and 40% w/w water. The quality of the granulation was assessed visually. […]
A composition comprising the ingredients and ratios as listed in table 2 were subjected to a standard wet granulation process with respectively 30% and 40% w/w water. The quality of the granulation was assessed visually. […]
A composition comprising the ingredients and ratios as listed in Table 1 are subjected to a standard wet granulation process with respectively 30% and 40% w/w water. The quality of the granulation was assessed visually. […]

For CC(C)OC(=O)OCOP(=O)(CO[C@H](C)Cn1cnc2c(N)ncnc21)OCOC(=O)OC(C)C [Tenofovir disoproxil fumarate], the “Stability of Tenofovir DF” value [1] is given as “degraded rapidly; also recorded: unstable” and the “Degradation of Tenofovir disoproxil salt (HPLC chromatogram)” value (from here on “Degradation of Tenofovir disoproxil salt”) [2] is given as “to a large extent”.

With Tenofovir disoproxil hemifumarate the “Chemical stability during wet granulation (overall conclusion)” value ([3]; Truvada (table 1) and Atripla (table 2) formulations, 30% and 40% w/w water) was “stable”, the “Impurity peaks of Tenofovir disoproxil at 26.57 and 36.0 min (HPLC)” value ([3]; 30% w/w high pure water) was “not observed” and the “Impurity peaks of Tenofovir disoproxil at 26.57 and 36.0 min (HPLC)” value ([3]; 40% w/w high pure water) was “not observed”. The “Degradation of Tenofovir disoproxil salt” value ([2]; Atripla sample prepared with 30% water, 33 weeks, 75% RH, 40° C.) was “no degradation”, the “Degradation of Tenofovir disoproxil salt” value ([2]; Atripla sample prepared with 40% water, 33 weeks, 75% RH, 40° C.) was “less degradation” and the “Degradation of Tenofovir disoproxil salt” value ([2]; Truvada sample prepared with 30% water, 33 weeks, 75% RH, 40° C.) was “small degradation”. The “Degradation of Tenofovir disoproxil salt” value ([2]; Truvada sample prepared with 40% water, 33 weeks, 75% RH, 40° C.) was “small degradation”.
